One experiment has as its target T1, human σ1 receptor (Homo sapiens, UniProt Q99720).
T1 construct: expressed in transfected cells; host or cells: HEK-293
The experiment is described as follows: Human σ1 receptor radioligand assay ([3H](+)-pentazocine). It counts as binding. The procedure, abridged:
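Binding used [3H](+)-pentazocine, 120 min at 37° C, with non-specific binding defined by 10 μM haloperidol. Bound radioligand was collected by filtration, washed with ice-cold 10 mM Tris-HCl pH 7.4 and counted by scintillation.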

The target in a further experiment is T2, human σ2/TMEM97 receptor (Homo sapiens, UniProt Q5BJF2).
T2 construct: expressed in transfected cells; host or cells: HEK-293
T2 sequence (Q5BJF2 whole entry): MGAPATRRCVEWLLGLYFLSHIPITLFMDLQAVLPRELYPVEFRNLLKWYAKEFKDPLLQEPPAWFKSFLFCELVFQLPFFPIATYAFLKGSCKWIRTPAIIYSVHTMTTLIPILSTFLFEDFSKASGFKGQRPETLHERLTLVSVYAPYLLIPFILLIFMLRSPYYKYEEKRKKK
The experiment is described as follows: Binding assay to human σ2/TMEM97 receptor ([3H]-DTG). The conditions noted are these: transfected HEK-293 membranes, 10 nM [3H]-DTG, 25° C., 120 minutes; read-out: Binding σ-[…] (binding to σ2-receptor expressed as Ki). The method in brief: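 Membranes from transfected HEK-293 cells incubated with 10 nM [3H]-DTG in 50 mM Tris-HCl pH 8.0, 120 min at 25 °C; non-specific binding defined with 10 μM haloperidol. Bound radioactivity counted after filtration; compounds tested as % inhibition at 1 or 10 μM or at five concentrations for Ki.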

The mark [1] stands for this setting: transfected HEK-293 membranes, 5 nM [3H](+)-pentazocine, 37° C., 120 minutes, read-out: Binding σ-[…] (binding to σ1-receptor expressed as Ki).

Read-outs that look alike come from different tables or passages of the source. A value given as a limit tells only on which side of the number the result lay.

T1 sequence (Q99720 whole entry): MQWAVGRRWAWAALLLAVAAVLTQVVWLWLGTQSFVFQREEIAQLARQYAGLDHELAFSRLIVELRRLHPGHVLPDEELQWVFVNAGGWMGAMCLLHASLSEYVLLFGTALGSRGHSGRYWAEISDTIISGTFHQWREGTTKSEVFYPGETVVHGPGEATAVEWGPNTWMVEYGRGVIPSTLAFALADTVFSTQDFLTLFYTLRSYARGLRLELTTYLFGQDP

As for `CC1(C)CN(C(=O)N2CCC3(CCN(Cc4cccc(F)c4)CC3)C2)c2cccnc21` [Example 152, (3,3-dimethyl-2,3-dihydro-1H-pyrrolo[3,2-b]pyridin-1-yl)(8-(3-fluorobenzyl)-2,8-diazaspiro[4.5]decan-2-yl)methanone], the Ki at human σ1 receptor (setting [1]) and on human σ2/TMEM97 receptor was under 100 nM each time.

With `CC1(C)CN(C(=O)N2CCC3(CCN(Cc4ncccc4F)CC3)C2)c2cccnc21` [Example 153], the Ki on human σ1 receptor (setting [1]) was over 1000 nM; on human σ2/TMEM97 receptor, 100 to 500 nM.

On to `CC1(C)CN(C(=O)N2CCC3(CCN(Cc4ccc(F)cn4)CC3)C2)c2cccnc21` [Example 154, (3,3-dimethyl-2,3-dihydro-1H-pyrrolo[3,2-b]pyridin-1-yl)(8-((5-fluoropyridin-2-yl)methyl)-2,8-diazaspiro[4.5]decan-2-yl)methanone], for which the Ki was 100 to 500 nM on human σ1 receptor (setting [1]) and under 100 nM at human σ2/TMEM97 receptor.

Take `CC1(C)CN(C(=O)N2CCC3(CCN(Cc4ccc(C(F)(F)F)nc4)CC3)C2)c2cccnc21` [Example 155, (3,3-dimethyl-2,3-dihydro-1H-pyrrolo[3,2-b]pyridin-1-yl)(8-((6-(trifluoromethyl)pyridin-3-yl)methyl)-2,8-diazaspiro[4.5]decan-2-yl)methanone]: the inhibitory constant (Ki) is over 1000 nM at human σ1 receptor (setting [1]) and under 100 nM on human σ2/TMEM97 receptor.

Take `CC1(C)CN(C(=O)N2CCC3(CCN(CCC4CCOCC4)CC3)C2)c2cccnc21` [Example 156, (3,3-dimethyl-2,3-dihydro-1H-pyrrolo[3,2-b]pyridin-1-yl)(8-(2-(tetrahydro-2H-pyran-4-yl)ethyl)-2,8-diazaspiro[4.5]decan-2-yl)methanone]: the Ki was 100 to 500 nM at human σ1 receptor and under 100 nM on human σ2/TMEM97 receptor.

For the molecule `CC1(C)CN(C(=O)N2CCC3(CCN(Cc4ccc(C#N)cc4F)CC3)C2)c2cccnc21` [Example 157, 4-((2-(3,3-dimethyl-2,3-dihydro-1H-pyrrolo[3,2-b]pyridine-1-carbonyl)-2,8-diazaspiro[4.5]decan-8-yl)methyl)-3-fluorobenzonitrile], the Ki was 100 to 500 nM on human σ1 receptor (setting [1]) and under 100 nM at human σ2/TMEM97 receptor.

On to `CC1(C)CN(C(=O)N2CCC3(CCN(Cc4cc(C#N)c(F)cc4F)CC3)C2)c2cccnc21` [Example 158, 5-((2-(3,3-dimethyl-2,3-dihydro-1H-pyrrolo[3,2-b]pyridine-1-carbonyl)-2,8-diazaspiro[4.5]decan-8-yl)methyl)-2,4-difluorobenzonitrile], for which the Ki at human σ1 receptor (setting [1]) and at human σ2/TMEM97 receptor was under 100 nM throughout.

With `CC1(C)CN(C(=O)N2CC3(CCN(Cc4ccccc4)CC3)C2)c2cccnc21` [Example 159, (7-benzyl-2,7-diazaspiro[3.5]nonan-2-yl)(3,3-dimethyl-2,3-dihydro-1H-pyrrolo[3,2-b]pyridin-1-yl)methanone], the Ki at human σ1 receptor (setting [1]) is under 100 nM; at human σ2/TMEM97 receptor it was 100 to 500 nM.

Turning to `Cc1ccc2c(n1)C(C)(C)CN2C(=O)N1CCC2(CCN(Cc3ccccc3F)CC2)CC1` [Example 160, (9-(2-fluorobenzyl)-3,9-diazaspiro[5.5]undecan-3-yl)(3,3,5-trimethyl-2,3-dihydro-1H-pyrrolo[3,2-b]pyridin-1-yl)methanone], the Ki at human σ1 receptor (setting [1]) and on human σ2/TMEM97 receptor was under 100 nM throughout.

Take `Cc1ccc2c(n1)C(C)(C)CN2C(=O)N1CCC2(CCN(CC3CCOCC3)CC2)CC1` [Example 161, (9-((tetrahydro-2H-pyran-4-yl)methyl)-3,9-diazaspiro[5.5]undecan-3-yl)(3,3,5-trimethyl-2,3-dihydro-1H-pyrrolo[3,2-b]pyridin-1-yl)methanone]: the Ki at human σ1 receptor (setting [1]) is 100 to 500 nM; at human σ2/TMEM97 receptor it was under 100 nM.

Take `Cc1ccc2c(n1)C(C)(C)CN2C(=O)N1CCC2(CCN(Cc3ccc(F)c(C#N)c3)CC2)CC1` [Example 162, 2-fluoro-5-((9-(3,3,5-trimethyl-2,3-dihydro-1H-pyrrolo[3,2-b]pyridine-1-carbonyl)-3,9-diazaspiro[5.5]undecan-3-yl)methyl)benzonitrile]: the Ki at human σ1 receptor (setting [1]) and at human σ2/TMEM97 receptor was 100 to 500 nM in each case.

A word on the Ki: it is the equilibrium dissociation constant of an inhibitor or competing ligand from its target.
